We go through two molecules from US8476439B2, “Pyridine classical cannabinoid compounds and related methods of use” (priority 2008, dated 2013).

A word on the EC50: it is the concentration that produces a half-maximal response.

The test deals with glioblastoma brain cancer cell line LN-229. The test is described as follows: Cytotoxicity assay (CCK8 viability). The test is classed as cell-based. The note with it: Homo sapiens, cytotoxicity against LN-229, 18 hours incubation, 1% FBS media. The method, then:
Cytoxocity assay: Cells were seeded on a 96 well polystyrene plate in full serum media at a density of 75,000 cells per milliliter, 100 μL per well. Plates were incubated at 37° C. and 5% CO2 for 24 hours to allow cell attachment. Drug solutions were prepared in DMSO at 100× concentration and mixed 1:100 in 1% FBS media to yield the desired concentration. Drug-media mixtures were vortexed immediately prior to administration to cells. Full serum media was removed and replaced with drug-media mixtures and incubated for 18 hours. 10 μL of Cell Counting Kit 8 (CCK8, Dojindo# CK04-11) was added to each well to colormetrically assess viability. After 2-4 hours of incubation with the CCK8 dye, absorbance was read at 450 nm by a BioTek Synergy 2 plate reader.
The cytotoxicity of selected compounds against the glioblastoma brain cancer cell line LN-229 is depicted in Table 1.

On to `CCCCCCC(C)(C)c1cc2c(c(O)n1)[C@H]1C[C@@H](C)CC[C@H]1C(C)(C)O2` [Compound 6c, (6aR, 9S, 10aS)-6,6,9-trimethyl-3-(2-methyloctan-2-yl)-6a,7,8,9,10,10a-hexahydro-6H-isochromeno[4,3-c]pyridin-1-ol], for which the EC50 came out at 1830 nM.
In the case of `CCCCCCC(C)(C)c1cc2c(c(O)n1)[C@@H]1C[C@H](C)CC[C@@H]1C(C)(C)O2` [Compound 6b, (6aS,9R,10aR)-6,6,9-trimethyl-3-(2-methyloctan-2-yl)-6a,7,8,9,10,10a-hexahydro-6H-isochromeno[4,3-c]pyridin-1-ol], the EC50 stood at 2430 nM.
